In patent US20100249408A1, “USE OF NOVEL COMPOUND HAVING AFFINITY FOR AMYLOID, AND PROCESS FOR PRODUCTION OF THE SAME” (NIHON MEDI-PHYSICS CO., LTD., priority 2007, published 2010):
Where two headings read alike, the source gives them in different places.

Columns and labels:
[1] = Partition coefficient based on the octanol extraction method (logPoctanol); details: octanol / 10 mmol/L phosphate buffer (pH 7.4), radioactivity count
Experimental: 10 μL each of the prepared sample solution was respectively added to 2 mL of octanol, further, 2 mL of 10 mmol/L phosphate buffer (pH 7.4) was added, and stirred for 30 seconds. […] Using the obtained radioactivity count, log Poctanol was calculated in accordance with the equation (2).

[2] = Transferability into brain and clearance (Examples II-11, II-12, Comparative Example II-1); details: rats, intravenous injection, three animals
Experimental: Using the Compounds 10 and 11, a time course change of radioactive accumulation in brain of male Wistar rats (7-week old) was measured.
The rats were sacrificed by bleeding from abdominal artery, and brains were removed and subjected to measurement of mass of brains and further subjected to measurement of radioactivity (hereinafter referred to as A in this Example) with a single channel analyzer (detector type: SP-20 manufactured by OHYO KOKEN KOGYO Co., Ltd.) 2, 5, 30 and 60 minutes after the injection. Also, radioactivity (hereinafter referred to as B in this Example) of the rest of the whole body was measured in the same manner as above. Using these measurement results, radioactive accumulation per unit weight of brain (% ID/g) at the respective time points were calculated in accordance with the following formula (4).
Three animals were used for experiment at the respective time points.

[3] = molecular target: T1, intracerebral amyloid (aggregated Aβ1-42 injected into amygdaloid nucleus) (Homo sapiens, UniProt P05067); experiment: ex vivo autoradiogram using rats of amyloid injected model (Examples II-13, II-14); design: species or system male Wistar rat; details: rat with Aβ1-42 amyloid suspension in one amygdaloid nucleus, tail vein, brain removed 60 minutes after injection
T1 construct: Aβ1-42 (manufactured by Peptide Institute) was dissolved in phosphate buffer (pH 7.4); purchased Peptide Institute
Experimental: As a control, 2.5 μL of a phosphate buffered physiological saline solution (pH 7.4) was injected into an amygdaloid nucleus on the other side of the rat. The rats were examined 1 day after the injection of the amyloid suspension and the phosphate buffered physiological saline solution (pH 7.4).
(4) Brain was removed 60 minutes after the injection to prepare a brain slice of 10 μm in thickness with a microtome (type: CM3050S, manufactured by LEICA).

[4] = International Publication No. WO03/106439; cited from earlier work
[5] = [125I]-labeled compounds, normal mice; cited from earlier work
[6] = [11C]-labeled, rats; cited from earlier work

T1 sequence (P05067 672-713): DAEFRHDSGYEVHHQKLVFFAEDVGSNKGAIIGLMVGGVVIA

Oc1ccc(-c2cn3cc([123I])ncc3n2)cc1 [Compound 10, [^123I]-2-(4′-hydroxyphenyl)-6-iodoimidazo[1,2-a]pyrazine]
logPoctanol value [1]: 2.3
Radioactive accumulation in brain per unit weight ([2]; after 2 min.): 0.62 % ID/g
Radioactive accumulation in brain per unit weight ([2]; after 5 min.): 0.33 % ID/g
Radioactive accumulation in brain per unit weight ([2]; after 30 min.): 0.08 % ID/g
Radioactive accumulation in brain per unit weight ([2]; after 60 min.): 0.02 % ID/g
Accumulation of radioactivity at intracerebral amyloid (ex vivo autoradiogram) [3]: a marked accumulation of radioactivity was observed in the amygdaloid nucleus on the side to which the amyloid suspension was injected

Oc1ccc(-c2cn3cccc([123I])c3n2)cc1 [Compound 11, [^123I]-2-(4′-hydroxyphenyl)-8-iodoimidazo[1,2-a]pyridine]
logPoctanol value [1]: 3.0
Radioactive accumulation in brain per unit weight ([2]; after 2 min.): 0.65 % ID/g
Radioactive accumulation in brain per unit weight ([2]; after 5 min.): 0.43 % ID/g
Radioactive accumulation in brain per unit weight ([2]; after 30 min.): 0.09 % ID/g
Radioactive accumulation in brain per unit weight ([2]; after 60 min.): 0.03 % ID/g
Accumulation of radioactivity at intracerebral amyloid (ex vivo autoradiogram) [3]: a marked accumulation of radioactivity was observed in the amygdaloid nucleus on the side to which the amyloid suspension was injected

CC(=C(C#N)C#N)c1ccc2cc(N(C)CCF)ccc2c1 [FDDNP, 2-(1-{6-[(2-fluoroethyl)(methyl)amino]-2-naphthyl}ethylidene)malononitrile]
Result in reverse mutation test [4]: positive

CN(C)c1ccc(-c2nc3ccc(I)cc3o2)cc1 [IBOX, 6-iodo-2-[4′-(N,N-dimethylamino)phenyl]benzoxazole]
Clearance from normal tissues [5]: insufficient in clearance from normal tissues

CN(C)c1ccc(-c2cn3cc(I)ccc3n2)cc1 [IMPY, 6-iodo-2-[4′-(N,N-dimethylamino)phenyl]imidazo[1,2-a]pyridine]
Result in reverse mutation test [4]: positive

CNc1ccc(/C=C/c2ccc(O)cc2)cc1 [SB-13, (E)-4-methylamino-4′-hydroxystilbene]
Clearance from normal tissues [6]: it cannot be said that the clearance is sufficiently fast

CN(C)c1ccc(-c2nc3ccc(I)cc3s2)cc1 [TZDM, 6-iodo-2-[4′-(N,N-dimethylamino)phenyl]benzothiazole]
Clearance from normal tissues [5]: insufficient in clearance from normal tissues

CN(C)c1ccc(/C=C/c2ccc(I)cc2)cc1 [m-I-SB, (E)-4-dimethylamino-4′-iodostilbene]
Clearance from normal tissues [5]: insufficient in clearance from normal tissues
